The test system of assay [1] is 229E human coronavirus (hCoV). Briefly: microbe, parasite or virus in culture. It counts as cell-based. The conditions noted are these: unidentified human coronavirus, MRC5, 144 h; MRC-5 cells, MOI 0.05, 6 days at 34° C., ATPlite, duplicate.
The target of the next assay is SARS-CoV-2 3CL-protease (Severe acute respiratory syndrome coronavirus 2 (2019-nCoV) (SARS-CoV-2), UniProt P0DTD1). Briefly: SARS-CoV-2 3C-like (3CL) protease fluorescence assay (FRET). It counts as biochemical. The conditions noted are these: recombinant SARS-CoV-2 3CL-protease 10 nM, 30 min preincubation, substrate 40 μM, duplicate.
Another assay has as its system norovirus. The conditions noted are these: phase II randomized double-blind trial, patients; cited from earlier work.

Consider `CC(C)[C@H](NC(=O)OCc1ccccc1)C(=O)CC(Cc1ccc(F)cc1)C(=O)N1C[C@]2(C[C@H]1C#N)C(=O)Nc1ccccc12` (some centres unmarked) [Example 1], for which the concentration for a half-maximal effect (EC50) – broadly, the midpoint of the concentration-response curve – in assay [1] was over 1000 nM. The IC50 (usually the point on the concentration scale where inhibition reaches its midpoint) on SARS-CoV-2 3CL-protease fell in the range of 100 to 1000 nM.
Regarding `CC(C)[C@H](NC(=O)C(F)(F)F)C(=O)CC(Cc1ccc(F)cc1)C(=O)N1C[C@]2(C[C@H]1C#N)C(=O)Nc1ccccc12` (some centres unmarked) [Example 2], the 50% effective concentration (EC50) in assay [1] is over 1000 nM. The half-inhibitory concentration (IC50) on SARS-CoV-2 3CL-protease was 100 to 1000 nM.
For `CC(C)CC(CC(=O)[C@@H](NC(=O)OCc1ccccc1)C(C)C)C(=O)N1C[C@]2(C[C@H]1C#N)C(=O)Nc1ccccc12` (some centres unmarked) [Example 3], in that order: over 1000 nM and over 1000 nM.
As for `Cc1cc(C(=O)N[C@H](C(=O)C[C@@H](Cc2ccc(F)cc2)C(=O)N2C[C@]3(C[C@H]2C#N)C(=O)Nc2ccccc23)C(C)C)no1` [Example 5], the 50% inhibitory concentration (IC50) at SARS-CoV-2 3CL-protease was under 100 nM.
The same measure, in the same setting: the result for `CCOC(=O)/C=C/[C@@H]1C[C@@]2(CN1C(=O)[C@@H](CC(=O)[C@@H](NC(=O)c1cc(C)on1)C(C)C)Cc1ccc(F)cc1)C(=O)Nc1ccccc12` [Example 6] reads over 1000 nM; that for `CCOC(=O)/C=C/[C@@H]1C[C@@]2(CN1C(=O)[C@@H](CC(=O)[C@@H](NC(=O)OC(C)(C)C)C(C)C)Cc1ccc(F)cc1)C(=O)Nc1ccccc12` [Example 25], over 1000 nM.
Same read-out and setting: the result for `CC(C)[C@H](NC(=O)OC(C)(C)C)C(=O)C[C@@H](Cc1ccc(F)cc1)C(=O)N1C[C@]2(C[C@H]1C#N)C(=O)Nc1ccccc12` [Example 26] reads under 100 nM.
As for `CC(=O)Oc1ccccc1C(=O)Nc1ncc([N+](=O)[O-])s1` [NTZ, nitazoxanide], in the assay on norovirus, the “reduction of gastroenteritis symptoms” value is 24 h.
